# Experimental data published in publication PMC7998250, “Temperate Zone Plant Natural Products—A Novel Resource for Activity against Tropical Parasitic Diseases” (Pharmaceuticals, 2021).
# Like-named read-outs stand apart in the source and are kept apart here.
# Experiments:
# [1] = test system: T. brucei bloodstream form; assay: Initial screen, T. brucei bloodstream form, Alamar Blue; assay type: cell-based, Trypanosoma brucei brucei; details: for activity at 2 µM / inhibition of growth at 2 µM: Trypanosoma brucei; for activity at 2 µM: initial screen; for initial hit against T. brucei / inhibition of growth at 2 µM: 2 μM; for initial hit against T. brucei: growth reduced by ≥50%; for inhibition of growth at 2 µM: x = initial hit, read-out: initial hit T.b
# Protocol: (§1) 634 compounds from the PhytoQuest Phytopure temperate plant natural product library were screened for growth inhibitory activity against L. mexicana axenic amastigotes, T. brucei bloodstream form, intraerythrocytic asexual P. falciparum (at 2 μM) and T. evansi bloodstream form parasites (at 1 μM). […] Our initial hits were defined as reducing growth of the parasite by ≥50%.
# (§2) L. mexicana strain MNYC/BZ/62/M379 and L. donovani strain LdBOB (a clonal line from strain MHOM/SD/62/1S-CL2) were maintained in vitro in the procyclic promastigote stage. Parasites were cultivated at 26 °C in Schneider’s medium (Gibco) pH 7.0 containing 10% FBS, 100 U/mL penicillin (Lonza) and 100 μg/mL streptomycin (Lonza) as previously described. Differentiation into axenic amastigotes was performed as described previously. Briefly, axenic amastigotes were cultivated at 32 °C in Schneider’s medium pH 5.5 containing 10% FBS, 100 U/mL penicillin (Lonza) and 100 μg/mL streptomycin (Lonza). Bloodstream form T. brucei brucei strain Lister 427 and T. evansi strain Antat 3/3 [59] were maintained in vitro at 37 °C with 5% (v/v) CO2 in HMI-11 medium supplemented with 10% FBS, as described elsewhere. Intraerythrocytic cultures of P. falciparum Dd2^Luc strain [62] were maintained at 37 °C in a 1% O2:3% CO2:96% N2 atmosphere in RPMI-1640 containing 37.5 mM HEPES, 5 mM NaOH, 10 mM D-glucose, 2 mM L-glutamine, 100 μM hypoxanthine, […] gentamicin sulfate, 5% human serum and 5% albumax-II and 2% haematocrit erythrocytes. When required, cultures were synchronised to ring stages using the sorbitol lysis method. Preliminary cytotoxicity screening was assessed using HepG2 cells. These cells were maintained in vitro at 37 °C with 5% (v/v) CO2 in DMEM (Sigma) pH 7 supplemented with 10% FBS, 100 U/mL penicillin (Lonza) and 100 μg/mL streptomycin (Lonza), as previously described. The human monocyte cell line THP-1 [68] was maintained in vitro by culturing at 37 °C with 5% (v/v) CO2 in complete RPMI medium (Dutch modified RPMI-1640 (Gibco) containing 10% FBS and 2 mM L-glutamine (Gibco)). Differentiation of THP-1 cells into macrophages was performed by seeding 2.5 × 10^5 cells/mL in complete RPMI media, supplemented with 20 ng/mL phorbol 12-myristate 13-acetate (PMA), followed by incubation at 37 °C with 5% (v/v) CO2 for 24 h.
# (§3) The library was provided as 634 non-polar compounds (1 mg/mL in DMSO). Initial screening was performed in a 96-well plate with 200 μL of parasite culture. The initial screen used each compound at a final concentration of 2 μM for L. mexicana axenic amastigotes, T. brucei and P. falciparum, and at 1 μM for T. evansi. L. mexicana axenic amastigotes were plated at 1 × 10^6 cells/mL, incubated for 72 h, and the Alamar Blue assay was used to assess parasite growth. Each compound was tested in triplicate, with two biological replicates (n = 6). T. brucei and T. evansi were plated at 1×10^5 cells/mL for 48 h, and the Alamar Blue assay was used to assess parasite growth. Each compound was tested in triplicate with two biological replicates (n = 6). Intraerythrocytic P. falciparum in the trophozoite stage were seeded at 0.5% parasitaemia and 2% haematocrit for 48 h, and the Malaria SYBR-Green I fluorescence assay was used to assess parasite growth. Each compound was tested in duplicate with two biological replicates (n = 4). Negative controls comprised an equivalent volume of DMSO (equivalent of 1% v/v) to normalise the growth data. Data points >100% growth and <0% growth were tabulated as 100% and 0%, respectively. Some compounds were not tested in all parasite lines as there was insufficient material remaining.
# [2] = test system: L. mexicana axenic amastigotes; assay: Initial screen, L. mexicana axenic amastigotes, Alamar Blue; assay type: cell-based, Leishmania mexicana
# Protocol: as §1, with “≥50%. […]” for “≥50%.”
# as §3, with “The PhytoQuest Phytopure library is a commercially available collection of purified compounds isolated predominantly from temperate zone plants, with structures confirmed by NMR and mass spectrometry. The library” for “The library”
# [3] = test system: T. evansi bloodstream form; assay: Initial screen, T. evansi bloodstream form, Alamar Blue; assay type: cell-based, Trypanosoma evansi; details: Trypanosoma evansi; for activity at 1 µM: initial screen; for inhibition of growth at 1 µM: x = initial hit, read-out: initial hit T.e
# Protocol: as §1, §2, §3
# [4] = test system: P. falciparum Dd2Luc intraerythrocytic trophozoites; assay: Initial screen, intraerythrocytic P. falciparum, Malaria SYBR-Green I fluorescence assay; assay type: cell-based, Plasmodium falciparum
# Protocol: as §1, with “≥50%. […]” for “≥50%.”
# as §3, with “The PhytoQuest Phytopure library is a commercially available collection of purified compounds isolated predominantly from temperate zone plants, with structures confirmed by NMR and mass spectrometry. The library” for “The library”
# T. brucei = assay: Concentration-response EC50, T. brucei; assay type: cell-based, Trypanosoma brucei brucei; details: Trypanosoma brucei, 48 h, bloodstream form, 48 h; read-out: T. brucei EC50
# in vitro = details: human, pH 7, HepG2 CC50
# Source text: Initial hits from the parasite panel screen were taken forward in log concentration versus normalised response assays to estimate the half maximal effective concentration (EC50) in hit species as well as the half maximal cytotoxic concentrations (CC50) in the human hepatoma cell line HepG2 as a preliminary test for selectivity. Using CC50/EC50 to define the selectivity index (SI), the selectivity for each compound in a defined species compared to a human cell line was estimated and compared to the EC50 (Figure 3).
# as §2
# EC50 values were determined by serial two-fold dilution of each compound in 96 well plates. Culture conditions and viability assays were as stated for the initial screen, with some exceptions. L. mexicana and L. donovani axenic amastigotes were seeded at 2 × 10^6 cell/s mL, T. brucei and T. evansi were seeded at 2 × 10^5 cells/mL. For cytotoxicity studies, HepG2 cells were seeded at 1 × 10^5 cells/mL, incubated for 48 h and viability was assessed using the Alamar Blue assay. Differentiated THP-1 cells were seeded at 5 × 10^4 cells/mL, incubated for 48 h, and viability was assessed by the Alamar Blue assay. Normalised growth and viability data (compared to untreated controls) were plotted against Log10 concentration to estimate EC50 in GraphPad (Prism v6). Bioluminescence relative rate of kill assays in asexual intraerythrocytic P. falciparum Dd2^Luc were carried out as described.
# [5] = mean % growth compared to a normalised control with same concentration of DMSO solvent, read-out: % growth T. b. brucei
# [6] = Leishmania mexicana, read-out: % growth L. mexicana, mean % growth compared to a normalised control with same concentration of DMSO solvent, initial screen
# [7] = mean % growth compared to a normalised control with same concentration of DMSO solvent, read-out: % growth T. evansi
# [8] = Plasmodium falciparum, 48 h, read-out: %growth P. falciparum, mean % growth compared to a normalised control with same concentration of DMSO solvent, initial screen
# [9] = compared to a normalised control with same concentration of DMSO solvent, read-out: mean % growth, T. b. brucei
# [10] = Leishmania mexicana, read-out: mean % growth, L. mexicana, initial screen, compared to a normalised control with same concentration of DMSO solvent
# [11] = compared to a normalised control with same concentration of DMSO solvent, read-out: mean % growth, T. evansi
# [12] = Plasmodium falciparum, 48 h, read-out: mean % growth, P. falciparum, initial screen, compared to a normalised control with same concentration of DMSO solvent
Compound,"activity at 2 µM [1, 5]","activity at 2 µM [2, 6]","activity at 1 µM [3, 7]","activity at 2 µM [4, 8]","inhibition of growth at 2 µM ([4]; Plasmodium falciparum, 48 h, read-out: initial hit P.f)",initial hit against T. brucei [1],inhibition of growth at 2 µM [1],"decrease of L. mexicana survival ([2]; 2 μM, 72 h)",EC50 (T. brucei),CC50 at 48 h (in vitro),activity against P. falciparum in screen ([4]; 2 μM),inhibition of growth at 1 µM [3],"activity at 2 µM [1, 9]","activity at 2 µM [2, 10]","activity at 1 µM [3, 11]","activity at 2 µM [4, 12]","initial hit against L. mexicana ([2]; 2 μM, growth inhibited by ≥80%)","inhibition of growth at 2 µM ([2]; Leishmania mexicana, 2 μM, x = initial hit, read-out: initial hit L.m)"
"CC(=O)OC1C(O)C(C)OC(OC2C(OC(=O)C3C[C@@H]4OC5(CC(OC(=O)/C=C/c6ccccc6)[C@@H](C)CO5)C(O)(CO)[C@@H]4CO3)OC(C)C(O)C2OC(C)=O)C1O (single isomer, unassigned) [Compound 700047]",61%,60%,90.2%,41.8%,> 50%,,,,,,,,,,,,,
CC(C)c1ccc2c(c1)CCC1C(C)(C=O)CCCC21C (stereo not shown) [Compound 700014],25.2%,56.9%,93%,107%,,initial hits,> 50%,~70%,1.1 µM,40 µM,neither 700014 or 700063 showed activity against P. falciparum,,,,,,,
CC(C)c1ccc2c(c1)CCC1C(CCCC1C(=O)O)O2 (stereo not shown) [Compound 700110],87.2%,52.4%,47.9%,105%,,,,,,,,> 50%,,,,,,
C/C1=C\C2OC(=O)C(=O)C2CC/C(C(=O)OC2OC(CO)C(O)C(O)C2O)=C\CC1 (stereo not shown) [Compound 700458],,,,,,,,,,,,> 50%,78.2%,48.5%,48.2%,119%,,
O=C1C=CC(O)(c2cc(=O)c3c(O)cc(O)cc3o2)C=C1 [Compound 700586],,,,,,initial hits,> 50%,,0.63 µM,3.6 µM,,,3.1%,56.5%,,77%,,
COc1cc2ccc(=O)oc2c(OC)c1OCC1C(C)=CCC2C(C)(C)C(O)CCC12C (stereo not shown) [Compound 700867],,,,,,initial hits,> 50%,,2.6 µM,27 µM,,,19.3%,60.7%,126%,104%,,
CC(C)C(=O)OC1C2C(CC(C)C3C=CC(=O)C31C)OC(=O)C2C (stereo not shown) [Compound 701156],,,,,,initial hits,> 50%,,0.99 µM,,,,24.3%,52.7%,113%,93.7%,,
C#CC#CCc1ccccc1C(=O)OC [Compound 701248],,,,,,,,,,,,,60.9%,19.2%,,100%,initial hits,> 80%
